# Test results published in patent publication US5525599A, “7-substituted-amino-3-substituted-3-cephem-4-carboxylic acids” (Eli Lilly and Company, priority 1993, dated 1996).
# Read-outs that look alike come from different tables or passages of the source.
# How the values were obtained:
# E. coli (EC14) = test: In vitro activity (MIC), agar dilution method; assay type: cell-based; conditions: Escherichia coli
# Description: (§1) Cephalosporins 9a-o were assayed against a broad array of Gram-positive and Gram-negative bacteria in Mueller-Hinton agar by the 2-fold serial dilution method, (Kirst, H. A.; J. Antibiot. 1982, 35, 1675).
# (§2) Test compounds were diluted to an appropriate range of concentrations in 0.1M phosphate buffer (pH 7), incorporated into Mueller-Hinton agar (difco) supplemented with 1% Bacto-Supplement C (Difco) at 50° C. and allowed to solidify in petri dishes. Fresh overnight cultures of test bacteria were diluted to approximately 1×10^4 cells/mL aand applied in […] to the surface of the agar plates. The inoculated plates were incubated overnight at 35° C. in ambient air. MIC endpoints were recorded as the lowest antibiotic concentrations that inhibited the development of visible bacterial growth on the plates.
# E. coli (N10) = test: In vitro activity (MIC), agar dilution method; assay type: cell-based; conditions: Escherichia coli
# Description: as §1, §2
# E. coli (TEM) = test: In vitro activity (MIC), agar dilution method; assay type: cell-based; conditions: Escherichia coli
# Description: as §1, §2
# Enter. faecalis (2041) = test: In vitro activity (MIC), agar dilution method; assay type: cell-based; conditions: Enterococcus faecalis; Enter. faecalis (2041), agar dilution; read-out: MIC
# Description: as §1, §2
# Enter. faecium (X66) = test: In vitro activity (MIC), agar dilution method; assay type: cell-based; conditions: Enterococcus faecium; Enter. faecium (X66), agar dilution; read-out: MIC
# Description: as §1, §2
# K. pneumonia (KAE) = test: In vitro activity (MIC), agar dilution method; assay type: cell-based; conditions: Klebsiella pneumoniae
# Description: as §1, §2
# K. pneumonia (X26) = test: In vitro activity (MIC), agar dilution method; assay type: cell-based; conditions: Klebsiella pneumoniae; K. pneumonia (X26), agar dilution; read-out: MIC
# Description: as §1, §2
# K. pneumonia (X68) = test: In vitro activity (MIC), agar dilution method; assay type: cell-based; conditions: Klebsiella pneumoniae
# Description: as §1, §2
# Staph. aureus (S13E) = test: In vitro activity (MIC), agar dilution method; assay type: cell-based; conditions: Staphylococcus aureus
# Description: as §1, §2
# Staph. aureus (V41) = test: In vitro activity (MIC), agar dilution method; assay type: cell-based; conditions: Staphylococcus aureus; Staph. aureus (V41), agar dilution; read-out: MIC
# Description: as §1, §2
# Staph. aureus (X1.1) = test: In vitro activity (MIC), agar dilution method; assay type: cell-based; conditions: Staphylococcus aureus; Staph. aureus (X1.1), agar dilution; read-out: MIC
# Description: as §1, §2
# Staph. aureus (X400) = test: In vitro activity (MIC), agar dilution method; assay type: cell-based; conditions: Staphylococcus aureus; Staph. aureus (X400), methicillin-resistant strain, agar dilution; read-out: MIC
# Description: as §1, §2
# Staph. epiderm. (222) = test: In vitro activity (MIC), agar dilution method; assay type: cell-based; conditions: Staphylococcus epidermidis; Staph. epiderm. (222), methicillin-resistant strain, agar dilution; read-out: MIC
# Description: as §1, §2
# Staph. epiderm. (270) = test: In vitro activity (MIC), agar dilution method; assay type: cell-based; conditions: Staphylococcus epidermidis, methicillin-resistant strain
# Description: as §1, §2
# other Gram(-) bacteria = test: In vitro activity (MIC), agar dilution method; assay type: cell-based
# [1] = MICs against 4 strains of methicillin-resistant staphylococci; assay type: cell-based, Staphylococcus aureus and Staphylococcus epidermidis; conditions: Staphylococcus aureus, read-out: minimal inhibitory concentrations (MICs)
# Description: as §1, §2
# H. influenzae (76) = test: In vitro activity (MIC), agar dilution method; assay type: cell-based; conditions: Haemophilus influenzae; H. influenzae (76), agar dilution; read-out: MIC
# Description: as §1, §2
# H. influenzae (C.L.) = test: In vitro activity (MIC), agar dilution method; assay type: cell-based; conditions: Haemophilus influenzae; H. influenzae (C.L.), agar dilution; read-out: MIC
# Description: as §1, §2
# Strept. pyogenes (C203) = test: In vitro activity (MIC), agar dilution method; assay type: cell-based; conditions: Streptococcus pyogenes; Strept. pyogenes (C203), agar dilution; read-out: MIC
# Description: as §1, §2
# [2] = test system: 33 strains of methicillin-resistant staphylococci; test: Geometric mean MICs against 33 strains of methicillin-resistant staphylococci; assay type: cell-based
# Description: as §2
# It is known that resistance to methicillin in staphylococci is often of the heterogeneous type and therefore not easily detected. […] (Goldstein, F. W.; Acar, J. J. Antimicrob. Chemother. […], 27, 549). […] J.; Drake T. A.; Rusnak, M. G.; Sande, M. A. J. Infect. Dis. 1984, 149, 894).
# [3] = test system: methicillin-resistant staphylococci; conditions: in words; Frongillo 1984; cited from earlier work
# [4] = test system: methicillin-resistant staphylococci; conditions: in words; Chambers 1984; cited from earlier work
# [5] = test system: methicillin-resistant staphylococci; conditions: in words; Frongillo 1986; cited from earlier work
SMILES,MIC (E. coli (EC14)) [µg/mL],MIC (E. coli (N10)) [µg/mL],MIC (E. coli (TEM)) [µg/mL],MIC (Enter. faecalis (2041)) [µg/mL],MIC (Enter. faecium (X66)) [µg/mL],MIC (K. pneumonia (KAE)) [µg/mL],MIC (K. pneumonia (X26)) [µg/mL],MIC (K. pneumonia (X68)) [µg/mL],MIC (Staph. aureus (S13E)) [µg/mL],MIC (Staph. aureus (V41)) [µg/mL],MIC (Staph. aureus (X1.1)) [µg/mL],MIC (Staph. aureus (X400)) [µg/mL],MIC (Staph. epiderm. (222)) [µg/mL],MIC (Staph. epiderm. (270)) [µg/mL],MIC (other Gram(-) bacteria) [µg/mL],MIC [1] [µg/mL],MIC (H. influenzae (76)) [µg/mL],MIC (H. influenzae (C.L.)) [µg/mL],MIC (Strept. pyogenes (C203)) [µg/mL],also measured
"CC(=O)OCC1=C(C(=O)O)N2C(=O)[C@@H](NC(=O)Cc3csc(-c4cccc(O)c4)n3)[C@H]2SC1 [9m, [6R-[6A,7B(R*)]]-3-[(Acetyloxy)methyl]-7-[[[2-(3-hydroxyphenyl)-4-thiazolyl]acetyl]amino]-8-oxo-5-thia-1-azabicyclo[4.2.0]oct-2-ene-2-carboxylic Acid]",128,128,128,16,32,128,4,128,8,1,0.25,16,0.25,1,> 64,≤ 16,–,–,–,–
"COc1ccccc1-c1nc(CC(=O)N[C@@H]2C(=O)N3C(C(=O)O)=C(COC(C)=O)CS[C@H]23)cs1 [9o, [6R-[6A,7B(R*)]]-3-[(Acetyloxy)methyl]-7-[[[2-(2-methoxyphenyl)-4-thiazolyl]acetyl]amino]-8-oxo-5-thia-1-azabicyclo[4.2.0]oct-2-ene-2-carboxylic Acid]",128,128,128,8,16,128,2,128,8,0.5,0.06,16,0.125,0.5,> 64,≤ 16,4,64,0.015,–
Cn1nnnc1SCC1=C(C(=O)O)N2C(=O)[C@@H](NC(=O)[C@H](O)c3ccccc3)[C@H]2SC1 [Cefamandole],–,–,–,–,–,–,–,–,–,–,–,–,–,–,–,–,–,–,–,"MIC ([2]; MHA + 4% NaCl, 33 strains, 35° C., read-out: Geometric mean MIC): 13 µg/mL; MIC ([2]; MHA, 33 strains, read-out: Geometric mean MIC): 6.8 µg/mL; activity against methicillin-resistant staphylococci [3]: among the most active β-lactam antibiotics against methicillin-resistant staphylococci; efficacy in animal models versus vancomycin [4]: poorer efficacy than vancomycin in animal models; clinical use for treatment of infections caused by methicillin-resistant staphylococci [5]: successfully used clinically for the treatment of infections caused by methicillin-resistant staphylococci"
"CO/N=C(\C(=O)N[C@@H]1C(=O)N2C(C(=O)O)=C(COC(C)=O)CS[C@H]12)c1csc(N)n1 [Cefot, Cefotaxime, reference compound]",–,–,0.008,1,128,–,0.008,–,64,2,1,128,2,8,–,–,0.008,0.008,0.008,"MIC (E. coli (EC14); E. coli (EC14), agar dilution, read-out: MIC): 0.015 µg/mL; MIC (E. coli (N10); E. coli (N10), agar dilution, read-out: MIC): 0.06 µg/mL; MIC (K. pneumonia (KAE); K. pneumonia (KAE), agar dilution, read-out: MIC): 1 µg/mL; MIC (K. pneumonia (X68); K. pneumonia (X68), agar dilution, read-out: MIC): 0.015 µg/mL"
"Cc1onc(-c2ccccc2)c1C(=O)N[C@@H]1C(=O)N2[C@@H]1SC(C)(C)[C@@H]2C(=O)O [Oxacillin, reference compound]",–,–,–,–,–,–,–,–,–,–,–,–,–,–,–,–,–,–,–,"MIC ([2]; read-out: Geometric mean MIC, MHA + 4% NaCl, 33 strains, 35° C.): 97 µg/mL; MIC ([2]; read-out: Geometric mean MIC, MHA, 33 strains): 49 µg/mL"
